The record followed here is patent US11028083B2, “Ethanediamine-heterocycle derivatives as inhibitors of protein arginine methyltransferases” (Board of Regents, The University of Texas System, priority 2018, dated 2021).

SMILES strings stand for the structures.

One assay addresses PRMT1 (Homo sapiens (Human), UniProt Q99873). In words: PRMT1 Enzymatic Assay (LANCE TR-FRET, methylation of histone H4 at Arg3). The format is biochemical. The note with it: PRMT-1 Enzymatic Assay; 1 μM SAM, 25 nM biotinylated histone H4 (1-21). The protocol:
In order to measure PRMT1 enzymatic activity the LANCE TR-FRET assay from PerkinElmer was used to follow the methylation of histone H4 at Arg3 using S-adenosyl-L-methionine (SAM) as the methyl group donor.
Final concentrations of PRMT1, SAM, and histone H4 (1-21) refer to a 10 μL volume.
Detection of methylated histone H4 (H4R3me) was achieved by combining LANCE Ultra Europium-anti-H4R3me antibody (PerkinElmer, Catalog #TRF04-14), LANCE Ultra ULight-anti-streptavidin antibody (PerkinElmer, Catalog #TRF0102), and sinefungin (Sigma, Catalog #S8559) (final concentrations 2 nM, 50 nM, and 100 μM respectively) in 1×LANCE detection buffer (PerkinElmer, Catalog #CR97-100) and adding 10 μL/well of the detection solution to the assay plate. Detection reagents were allowed to react for 1 hour at room temperature. Final concentrations in the detection solution refer to a 20 μL volume.

The target of assay [1] is Full-length human PRMT1 (1-361) (Homo sapiens, UniProt Q99873). In words: PRMT1 RapidFire Mass Spectrometry Selectivity Assay (SAH production). The format is biochemical. As to conditions: Rapid fire enzyme assay; 1 μM SAM, 50 nM histone H4 (1-21); read-out: PRMT-1 IC50.
Assay [2] concerns the target Full-length human GST-PRMT4 (Homo sapiens (Human), UniProt Q86X55). In words: PRMT4 RapidFire Mass Spectrometry Selectivity Assay (SAH production). The format is biochemical. The note with it: Rapid fire enzyme assay; 0.5 μM SAM, 15 nM Histone H3.3; read-out: PRMT-4 IC50. The source says:
Full-length human GST-PRMT4 (SignalChem, catalog#P365-380DG) was expressed by baculovirus in Sf9 insect cells.

Assay [3] has as its target Full-length human PRMT6 (1-375) (Homo sapiens (Human), UniProt Q96LA8). In words: PRMT6 RapidFire Mass Spectrometry Selectivity Assay (SAH production). The note with it: read-out: PRMT-6 IC50; Rapid fire enzyme assay; 3 μM SAM, 250 nM Histone H4 (36-50) K44 MeI.
Method: The PRMT6 assay was performed by dispensing 6 uL/well (final concentration of 10 nM) of PRMT6 protein diluted in assay buffer to the plate. Stock solutions of the test compounds were prepared in 100% DMSO (Sigma, Catalog #D2650) and serially diluted 1:3 using 100% DMSO. Compounds were additionally diluted 1:50 in assay buffer, and 6 μL/well were transferred to the assay plate. Plates were allowed to incubate for 15 min at room temperature.
RapidFire buffer A contained H2O and buffer B was 80% acetonitrile/H2O. […] SAH peaks were integrated using RapidFire peak software and IC50 values were calculated using a four-parameter logistic curve fit using Genedata Screener software.
For a further assay, the target named is PRMT1 in RKO cells (Homo sapiens (Human), UniProt Q99873). In words: PRMT1 RKO Cellular Target Engagement Assay (In-Cell Western, asymmetric di-methyl arginine). The note with it: PRMT-1 Target Engagement, 48 hr compound incubation. The format is cell-based.
Chain of PRMT1 in RKO cells (Q99873 whole entry): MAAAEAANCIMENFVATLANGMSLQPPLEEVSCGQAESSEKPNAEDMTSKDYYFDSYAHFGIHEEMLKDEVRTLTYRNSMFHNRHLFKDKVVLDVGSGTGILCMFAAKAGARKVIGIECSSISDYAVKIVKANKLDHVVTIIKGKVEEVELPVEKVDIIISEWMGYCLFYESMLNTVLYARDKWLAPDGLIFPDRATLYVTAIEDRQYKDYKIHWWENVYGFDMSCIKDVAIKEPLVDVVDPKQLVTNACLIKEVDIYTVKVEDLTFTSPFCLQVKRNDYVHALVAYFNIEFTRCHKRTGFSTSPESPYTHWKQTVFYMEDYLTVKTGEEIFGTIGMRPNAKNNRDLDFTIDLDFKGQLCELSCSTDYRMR

Chain of Full-length human GST-PRMT4 (Q86X55 whole entry): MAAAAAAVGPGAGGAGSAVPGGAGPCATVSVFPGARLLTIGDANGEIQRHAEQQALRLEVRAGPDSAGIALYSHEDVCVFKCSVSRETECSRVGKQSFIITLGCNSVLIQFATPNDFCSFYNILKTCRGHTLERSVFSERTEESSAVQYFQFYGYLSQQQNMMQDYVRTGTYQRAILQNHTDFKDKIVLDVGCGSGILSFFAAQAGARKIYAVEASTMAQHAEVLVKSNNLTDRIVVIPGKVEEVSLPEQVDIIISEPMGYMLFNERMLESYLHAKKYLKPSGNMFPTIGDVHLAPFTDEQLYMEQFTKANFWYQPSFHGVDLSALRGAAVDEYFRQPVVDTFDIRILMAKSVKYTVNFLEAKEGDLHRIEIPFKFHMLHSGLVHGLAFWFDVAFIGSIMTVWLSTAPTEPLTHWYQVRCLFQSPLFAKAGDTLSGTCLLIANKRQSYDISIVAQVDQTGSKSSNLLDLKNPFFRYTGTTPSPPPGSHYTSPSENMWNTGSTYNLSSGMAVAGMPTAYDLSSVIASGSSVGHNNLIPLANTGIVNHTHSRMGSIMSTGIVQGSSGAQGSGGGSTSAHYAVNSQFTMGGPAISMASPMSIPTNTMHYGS
Chain of PRMT1 (Q99873 whole entry): as the sequence (Q99873 whole entry) above
Chain of Full-length human PRMT6 (1-375) (Q96LA8 whole entry): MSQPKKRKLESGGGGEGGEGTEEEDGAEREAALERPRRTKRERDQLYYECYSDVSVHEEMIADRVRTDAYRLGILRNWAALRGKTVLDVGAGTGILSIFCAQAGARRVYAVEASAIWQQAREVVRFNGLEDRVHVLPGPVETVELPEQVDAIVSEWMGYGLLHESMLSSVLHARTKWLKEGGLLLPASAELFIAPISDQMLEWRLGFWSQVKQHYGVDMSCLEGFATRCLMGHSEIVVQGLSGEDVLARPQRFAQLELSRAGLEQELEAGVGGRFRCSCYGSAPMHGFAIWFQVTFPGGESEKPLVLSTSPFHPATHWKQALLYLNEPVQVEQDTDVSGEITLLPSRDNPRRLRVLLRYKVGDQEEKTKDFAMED
Method for PRMT1 in RKO cells: In preparation for the In-Cell Western assay, cells were harvested and resuspended in EMEM media supplemented with 10% fetal bovine serum. […] The culture plate was incubated for 24 hr at 37° C. with 5% CO2 and ambient O2. […] The primary antibody was then removed, and the plate was washed three times with 1×PBST. […] The plate was then incubated in the dark, at room temperature for 1 hour followed by three washes with 1×PBST and one wash with H2O. The IRDye secondary antibody signal (800 channel) and the CellTag signal (700 channel) were measured using a Licor Odyssey Imager, and the 800 channel signal was then normalized to the 700 channel signal. IC50 values were calculated using a four-parameter logistic curve fit using Genedata Screener software.

In the case of `CNCCN(C)Cc1nn2c(c1C1CCCCC1)CCC2` [Example 11, N^1-((3-cyclohexyl-5,6-dihydro-4H-pyrrolo[1,2-b]pyrazol-2-yl)methyl)-N^1,N^2-dimethylethane-1,2-diamine], the IC50 – broadly, the concentration that inhibits the measured activity by half – against PRMT1 is 44 nM; in assay [1] it was 93 nM; in assay [2] it was 654 nM; in assay [3] it was 99 nM; against PRMT1 in RKO cells, 14000 nM.

On to `CNCCN(C)Cc1nn2c(c1C1CCCCC1)CCCC2` [Example 21, N^1-((3-cyclohexyl-4,5,6,7-tetrahydropyrazolo[1,5-a]pyridin-2-yl)methyl)-N^1,N^2-dimethylethane-1,2-diamine], for which, in assay [2], the IC50 was determined as 1120 nM.

`CCOCC1(COCC)CCC(c2c(CNCCN)nn3c2CC(F)(F)C3)CC1` [Example 92, N^1-((3-(4,4-bis(ethoxymethyl)cyclohexyl)-5,5-difluoro-5,6-dihydro-4H-pyrrolo[1,2-b]pyrazol-2-yl)methyl)ethane-1,2-diamine] yielded a 50% inhibitory concentration (IC50) at PRMT1 of 73 nM. On to `CCOCC1(COCC)CCC(c2c(CN(C)CCNC)nn3c2CCC3)CC1` [Example 2, N^1-((3-(4,4-bis(ethoxymethyl)cyclohexyl)-5,6-dihydro-4H-pyrrolo[1,2-b]pyrazol-2-yl)methyl)-N^1, N^2-dimethylethane-1,2-diamine], for which, in assay [2], the IC50 turned out to be 79 nM. With `CNCCN(C)Cc1nn2c(c1C1CCC3(CCCC3)CC1)CCC2` [Example 49, N^1,N^2-dimethyl-N^1-((3-(spiro[4.5]decan-8-yl)-5,6-dihydro-4H-pyrrolo[1,2-b]pyrazol-2-yl)methyl)ethane-1,2-diamine], the half-maximal inhibitory concentration (IC50) in assay [2] is 114 nM. `CNCCN(C)Cc1nn2c(c1C1CCC(C)(C)CC1)CCC2` [Example 51, N^1-((3-(4,4-dimethylcyclohexyl)-5,6-dihydro-4H-pyrrolo[1,2-b]pyrazol-2-yl)methyl)-N^1,N^2-dimethylethane-1,2-diamine]: in assay [2], the IC50 was 337 nM.
